According to publication PMC9063842, “A GH115 α-glucuronidase structure reveals dimerization-mediated substrate binding and a proton wire potentially important for catalysis” (Acta Crystallographica. Section D, Structural Biology, 2022):

What was measured:
wtsAgu115A = biological target: T1, wtsAgu115A (uncultured bacterium, UniProt A0ACD6BAS3); test: X-ray crystal structure, crystal soaking; assay type: binding; details: 2.65 A; 0.2 M CaCl2, HEPES pH 7.5, 28% PEG 400; five of six xylose units visible; active site at dimer interface; Ca2+ near site; wild type inferred (Asp303 side chain H-bonds the ligand)
T1 construct: mature protein without 19-residue signal peptide, pET-28a (NcoI/XhoI), His-tag purified, E. coli BL21(DE3) pLysS; homodimer

[1] = biological target: the molecule itself; test: SEC; analytical gel filtration, HiLoad 16/60 Superdex G200, 10 mM sodium acetate, 150 mM NaCl pH 6, 0.5 ml/min; standards aldolase (158 kDa), conalbumin (75 kDa), ovalbumin (44 kDa)

Molecule	X-ray crystal structure, crystal soaking (wtsAgu115A)	stoichiometry N [1]
OC1OC[C@@H](O[C@@H]2OC[C@@H](O[C@@H]3OC[C@@H](O[C@@H]4OC[C@@H](O[C@@H]5OC[C@@H](O[C@@H]6OC[C@@H](O)[C@H](O)[C@H]6O)[C@H](O)[C@H]5O)[C@H](O)[C@H]4O)[C@H](O)[C@H]3O)[C@H](O)[C@H]2O)[C@H](O)[C@H]1O (some centres unmarked) [xylohexaose]	five β-1,4-linked D-xylopyranose moieties was observed in the crystal structure of wtsAgu115A soaked with xylohexaose	–
wtsAgu115A (enzyme) AGDNKGITYEELNPERFTLLEKGTPTNILIDENEDQGVMIAATNLSEDFGRVSGTNAPLIFLPDNERLIIVGTLESRYIKELTENRKIKGDELKGKNEKYLMTVVDNPLPGVKEALIIAGSDKRGAIYGIYELSEQIGVSPWYDWADVPVKPQQNLSIERGSYTADEPAVTYRGIFLNDEAPALTSWVENTYGTKYGDHRFYSRVFELILRLRGNFLWPAMWDWSFYGDDPLNSKTADTMGIIMGTSHHEPMARNHQEWARNRDKYGVWDYTSNQEVIDQFFREGIERVKDTDDLITIGMRGDGDTPMPMGVKEGEDHLPSDEDNMRLLERIIKNQREIIGDVTGESPEKTPQVWAIYKEVQRYFDLGLRPPEDVIILLSDDNWGNVRRLPTEEERDHPGGWGMYYHFDYVGAPRSSKWLNISPIQNIWEQMQLTYDYGVDELWVANVGDLKPMEYPITLFLDMAWDPTRFNAENLLDHTRSFAAQQFGEDQADEAARIINLYSKYNGRVTPEMLDRNTYNLESGEWKKVSDEYIKLEAEALRQYLTLEPEQRDAYKQLILYPVQAMANLYEMYYSQAMNHKLYRENNPMANYWADRVEETFNRDAELSHDYNKVMANGKWDGMMTQKKIGYRSWNDNFPADTLPQIFRIENPEEATGGYVFTARDGVVVIEAEHYFEAKDAEEAKWTVIPYMGRTLSSIALMPYTKEVEGASLSYRMQIPDEVSEVKVHVVVKSTLPFHDPKGHEYRVGFEGGSKEIVNFNWNLNEEPENIYSVFYPTVASRVVKKDVTLDLHDTDDGFYTLTLEPLDPGIVFQKIVVDFGGYEESRLFMEESPNKRIEIE	–	2
